Laboratory results from article PMC9618446 (Biomedicine & Pharmacotherapy, 2022).

Tests used:
Type in all cases: cell-based
[1] = tested on: SARS-CoV-2 S protein variant P681H PsV; details: read-out: IC50 against SARS-CoV-2 S variant PsV P681H
[2] = tested on: SARS-CoV-2 S protein variant D614G PsV; details: read-out: IC50 against SARS-CoV-2 S variant PsV D614G
[3] = tested on: SARS-CoV-2 S protein variant N501Y PsV; details: read-out: IC50 against SARS-CoV-2 S variant PsV N501Y

## COc1c(O)cc2oc(-c3ccccc3)cc(=O)c2c1O [OA, Oroxylin A]
[1]
  IC50: 19.6 ± 2.39 µM
[2]
  IC50: 18.1 ± 0.67 µM
[3]
  IC50: 13.6 ± 1.24 µM
